Assays:
[1] = tested on: primary cerebellar granule neurons; assay: Cell survival measurement (MTT assay) after kainic acid treatment; assay type: cell-based, mouse; conditions: T3-/- versus wild-type neurons; 50 uM kainic acid, 4 hr and 24 hrs; FIG. 9
Experimental: SH-SY5Y cells were cultured in Dulbecco's Modified Eagle's Medium (DMEM) supplemented with 10% Fetal Calf Serum (FCS). SH-SY5Y cells were transfected with Lipofectamine 2000 (Invitrogen, Carlsbad, Calif.). Granule neuron cultures were prepared from cerebella of postnatal day 5 mouse pups. Neurons were placed on polyornithine-coated 96-well plates and grown in Basal Medium Eagle (BME) (Sigma, St. Louis, Mo.) supplemented with 10% calf serum (Hyclone Laboratories, Logan, Utah), 25 mM KCl, 2 mM glutamine, penicillin, and streptomycin. One day after cultures were prepared they were treated with 10 μM of the antimitotic agent cytosine-D-arabinofuranoside (Sigma, St. Louis, Mo.) to prevent the proliferation of non-neuronal cells.
The resistance to kainic acid of primary granule neurons derived from WT and SIRT3 null mice was quantified as the percentage of live cells after a 4 hr and 24 hrs treatment with 50 uM Kainic acid. The quantitation of dead cells upon Kainic acid treatment was carried out using the MTT assay was performed using CellTiter 96 Nonradioactive Cell Proliferation Assay kit (Promega).

[2] = tested on: hippocampus and amygdala neurons; assay: Loss of hippocampus and amygdala neurons after kainic acid injections; assay type: in vivo, mouse; conditions: FIG. 14
Experimental: (§1) To induce seizures, both WT female (n=6) and KO female (n=5) mice and WT male (n=5) and KO male (n=6) mice were injected i.p. with 30 mg/kg KA.
The effect of kainic acid injections on memory function was also investigated by examining hippocampus and amygdala neurons.

[3] = tested on: 129/Sv mice; assay: Seizure induction by kainic acid injection in mice; assay type: in vivo, mouse; conditions: 30 mg/kg KA i.p.; WT and SIRT3 KO, female and male mice
Experimental: Littermate 129/Sv (6-8 weeks old) mice were used for the studies. SIRT3−/− mice were in a 129/sv background. Mice were housed under controlled temperature (25° C.) and light, and fed normal chow.
as §1

C=C(C)[C@H]1CN[C@H](C(=O)O)[C@H]1CC(=O)O [kainic acid]
cell survival [1]: reduced cell survival | loss of hippocampus and amygdala neurons [2]: loss of hippocampus and amygdala neurons | seizures [3]: caused seizures in all mice
